Test results from patent publication US10555951B2, “Targeted treatment of leiomyosarcoma” (Eli Lilly and Company, priority 2015, dated 2020).
Where “and” joins values, the source holds several entries; their conditions need not be identical. Equal entries are not always repeated. Values belong to the molecule of their own block, whether it stands above or below them.

How the values were obtained:
leiomyosarcoma tumor [1] = experiment: Clinical evaluation: leiomyosarcoma patients, cycle 1, CT scan and DCE-US (Table 2); type: in vivo, human
Description: A study of 4,4,4-Trifluoro-N-[(1S)-2-[[(7S)-5-(2-hydroxyethyl)-6-oxo-7H-pyrido[2,3-d][3]benzazepin-7-yl]amino]-1-methyl-2-oxo-ethyl]butanamide hydrate in patients with advanced or metastatic cancer.
(§1) This study is a multicenter, nonrandomized, open-label, dose-escalation study followed by cohort expansion of oral dosed 4,4,4-trifluoro-N-[(1S)-2-[[(7S)-5-(2-hydroxyethyl)-6-oxo-7H-pyrido[2,3-d][3]benzazepin-7-yl]amino]-1-methyl-2-oxo-ethyl]butanamide hydrate in outpatients with advanced or metastatic cancer.
(§2) 4,4,4-Trifluoro-N-[(1S)-2-[[(7S)-5-(2-hydroxyethyl)-6-oxo-7H-pyrido[2,3-d][3]benzazepin-7-yl]amino]-1-methyl-2-oxo-ethyl]butanamide hydrate, dose range 2.5 to 100 mg, given orally as capsules 3 times per week during a 28-day cycle.
(§3) 4,4,4-Trifluoro-N-[(1S)-2-[[(7S)-5-(2-hydroxyethyl)-6-oxo-7H-pyrido[2,3-d][3]benzazepin-7-yl]amino]-1-methyl-2-oxo-ethyl]butanamide hydrate will be administered orally TIW during both the dose-escalation phase (Part A) and the dose-confirmation phase (Part B).
(§4) Efficacy: Depending on the histology, efficacy will be assessed using Response Evaluation Criteria in Solid Tumors (RECIST) v1.1 for solid tumors, the Revised Criteria for Malignant Lymphoma, the Guidelines from the National Cancer Institute Working Group for CLL, or the Response Assessment in Neuro-Oncology (RANO) criteria for glioblastoma. Each patient will be assessed by 1 or more of the following radiologic tests for tumor measurement: X-ray computerized tomography (CT) scan; magnetic resonance imaging (MRI); chest X-ray; PET scan; PET/CT imaging Standardized Uptake Values (SUVMAX).
Data on 3 patients having leiomyosarcoma administered 4,4,4-trifluoro-N-[(1S)-2-[[(7S)-5-(2-hydroxyethyl)-6-oxo-7H-pyrido[2,3-d][3]benzazepin-7-yl]amino]-1-methyl-2-oxo-ethyl]butanamide hydrate in cycle 1 of an ongoing clinical trial are presented in Table 2. Patient 1 was previously treated for leiomyosarcoma with surgery, radiation therapy and 5 prior regimens of systemic therapeutic or targeted therapies. Patient 2 was previously treated for leiomyosarcoma with surgery, radiation therapy, brachytherapy and 3 prior regimens of systemic therapeutic or targeted therapies. Patient 3 was previously treated for leiomyosarcoma with surgery and 3 prior regimens of systemic therapeutic or targeted therapies.

leiomyosarcoma tumor [2] = experiment: Clinical evaluation Part B: leiomyosarcoma patients, RECIST, tumor size, PET/CT SUVmax (Table 3); type: in vivo, human
Description: PET/CT imaging of cancer with combined positron emission tomography (PET) and X-ray computerized tomography (CT) scanners has become a standard component of diagnosis and staging in oncology. The use of the radiolabeled tracer 2-deoxy-2-[^18F]fluoro-D-glucose (FDG) is used for the majority of all PET/CT imaging procedures. One of the advantages of PET/CT imaging is its ability to detect, very early during treatment, significant changes in glucose metabolism or even complete shutoff of the neoplastic cell metabolism as a surrogate of tumor chemosensitivity assessment. In addition to cancer detection and staging, PET/CT imaging is becoming increasingly important as a quantitative monitor of individual response to therapy and an evaluation tool for new drug therapies. […] RECIST criteria, where response of tumors to therapy has traditionally assessed by measurement of changes in size/dimension of the tumors in CT images may not evidence early response to the therapy. Changes in size of tumors as a result of therapy may take a long period of time to develop. The most widely used parameter is the standardized uptake value (SUV) is defined as the maximal SUV value (SUVMAX) in the region of interest and reduction in SUVMAX is generally considered the most reliable indicator of the metabolic activity shutdown.
as §1, §2, §3, §4
Data on 19 additional patients having leiomyosarcoma administered 4,4,4-trifluoro-N-[(1S)-2-[[(7S)-5-(2-hydroxyethyl)-6-oxo-7H-pyrido[2,3-d][3]benzazepin-7-yl]amino]-1-methyl-2-oxo-ethyl]butanamide hydrate in Part B of an ongoing clinical trial are presented in Table 3. Choi Response Criteria, were recorded for a limited number of patients and are not reported in Table 3, Choi et al, J Clin Oncol. 2007; 25:1753-1759.

[3] = Atropisomer equilibrium in solution by 1H NMR and LC-MS; type: physicochemical; conditions: ambient temperature, after 24 hours
Procedure: In aqueous solutions, 8-9% of atropisomer 2 (minor atropisomer) is detected by ^1H NMR and LC-MS in equilibrium with atropisomer 1 (major atropisomer) at ambient temperature after 24 hours. In organic solvents, at ambient temperature after 24 hours, approximately 1-2% of atropisomer 2 is detected by ^1H NMR and LC-MS in equilibrium with atropisomer 1. Although detectable by ^1H NMR and LC-MS analysis, atropisomer 2 is not isolable.

[4] = Patient 1, initial oral dose 100 mg T.I.W., cycle 1
[5] = first assigned dose 50 mg, individual LMS patients 8-22, Hydrate
[6] = first assigned dose 75 mg, individual LMS patients 4-7, Hydrate

SMILES: C[C@H](NC(=O)CCC(F)(F)F)C(=O)N[C@@H]1C(=O)N(CCO)c2ncccc2-c2ccccc21 [4,4,4-Trifluoro-N-[(1S)-2-[[(7S)-5-(2-hydroxyethyl)-6-oxo-7H-pyrido[2,3-d][3]benzazepin-7-yl]amino]-1-methyl-2-oxo-ethyl]butanamide Hydrate]
Overall Response DCE-US (leiomyosarcoma tumor [1]; [4]): Confirmed | Target Response (leiomyosarcoma tumor [1]; [4]): 90% necrosis | Additional CT scan imaging after 1 cycle (leiomyosarcoma tumor [1]; after 1 cycle (28 days), patients 1-3): confirmed necrosis in all three patients | Necrosis of leiomyosarcoma tumor (CT scan of the liver, confirmed by DCE-US) (leiomyosarcoma tumor [1]; patients 1 and 2, first week of treatment): significant necrosis | Best Change in Tumor Size (%) (leiomyosarcoma tumor [2]; [5]): 13% and 60% and 37% and 19% and 20% and −13% and 33% and 24% and 23% and 50% | PET/CT Scan (change in SUVmax %) (leiomyosarcoma tumor [2]; [5]): −7% and 37% and −5% and −30% and 0% and −11% and 16% | Best Change in Tumor Size (%) (leiomyosarcoma tumor [2]; [6]): 13% and 23% and 2% | Best RECIST Response (leiomyosarcoma tumor [2]; [6]): Unconfirmed PR | PET/CT Scan (change in SUVmax %) (leiomyosarcoma tumor [2]; [6]): −4% and 58% and 10% and 32% | Clinical effect in leiomyosarcoma tumor patients (PET/CT SUVMAX data) (leiomyosarcoma tumor [2]; summary of Table 3 data): beneficial clinical effect

atropisomer 2 (minor atropisomer) detected in equilibrium with atropisomer 1 ([3]; aqueous solutions): 8-9% | atropisomer 2 detected in equilibrium with atropisomer 1 ([3]; organic solvents): 1-2%
SMILES: C[C@H](NC(=O)CCC(F)(F)F)C(=O)N[C@@H]1C(=O)N(CCO)c2ncccc2-c2ccccc21 [Compound 1, 4,4,4-trifluoro-N-[(1S)-2-[[(7S)-5-(2-hydroxyethyl)-6-oxo-7H-pyrido[2,3-d][3]benzazepin-7-yl]amino]-1-methyl-2-oxo-ethyl]butanamide]
